Laboratory results as given in ChEMBL document CHEMBL1201862, “PubChem BioAssay data set” (2004).
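Each compound was tested at five concentrations against cells in 96-well plates for 48 hours. GI50 = concentration required for 50% inhibition of growth.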 The source made the active and inactive calls. Rule as the data show it: active = GI50 up to about 1.1 µM and inactive = higher.

What was measured:
Experiment in all cases: growth of human tumour cells (NCI), 48 h
[1] = test system: 786-0
[2] = test system: ACHN
[3] = test system: HCT-15
[4] = test system: HOP-62
[5] = test system: K562
[6] = test system: KM12
[7] = test system: MDA-MB-231
[8] = test system: OVCAR-3
[9] = test system: OVCAR-8
[10] = test system: RPMI-8226
[11] = test system: SK-OV-3
[12] = test system: SNB-75
[13] = test system: SW-620
[14] = test system: TK-10
[15] = test system: UACC-62
[16] = test system: NCI-H522
[17] = test system: SK-MEL-5
[18] = test system: UACC-257
[19] = test system: SK-MEL-2

Structure (SMILES)	GI50 [1]	GI50 [2]	GI50 [3]	GI50 [4]	GI50 [5]	GI50 [6]	GI50 [7]	GI50 [8]	GI50 [9]	GI50 [10]	GI50 [11]	GI50 [12]	GI50 [13]	GI50 [14]	GI50 [15]	GI50 [16]	GI50 [17]	GI50 [18]	GI50 [19]
CCOC(=O)NN(C(=O)OCC)C(=C(C1=CCCCC1)N1CCOCC1)N(NC(=O)OCC)C(=O)OCC	> 100 µM (inactive)	> 100 µM (inactive)	> 100 µM	> 100 µM (inactive)	> 100 µM (inactive)	> 100 µM (inactive)	> 100 µM (inactive)	> 100 µM (inactive)	> 100 µM (inactive)	> 100 µM (inactive)	> 100 µM (inactive)	> 100 µM (inactive)	> 100 µM (inactive)	> 100 µM (inactive)	> 100 µM (inactive)				
NC1=Nc2ccccc2Sc2nc3ccccc3n21	2.23 µM (inactive)	29.7 µM (inactive)	35.5 µM	52.5 µM (inactive)	9.38 µM (inactive)	27.2 µM (inactive)	19.1 µM (inactive)	8.02 µM (inactive)		4.46 µM (inactive)	17.1 µM (inactive)	15.6 µM (inactive)	46.1 µM (inactive)	> 100 µM (inactive)	23.9 µM (inactive)	13.9 µM (inactive)	5.4 µM (inactive)	26.1 µM (inactive)	
CC(C)(C)OC(=O)NC1CCCC1=O (configuration not stated)	> 100 µM (inactive)	> 100 µM (inactive)		> 100 µM (inactive)	> 100 µM (inactive)	> 100 µM (inactive)		> 100 µM (inactive)	> 100 µM (inactive)		> 100 µM (inactive)	40.9 µM (inactive)	> 100 µM (inactive)	> 100 µM (inactive)	> 100 µM (inactive)	> 100 µM (inactive)	> 100 µM (inactive)	> 100 µM (inactive)	> 100 µM (inactive)
CC(=O)Oc1cc2c(n(C)c1=O)CCC2	> 100 µM (inactive)	> 100 µM (inactive)	33.6 µM	> 100 µM (inactive)	> 100 µM (inactive)	> 100 µM (inactive)	> 100 µM (inactive)		94.4 µM (inactive)		> 100 µM (inactive)	> 100 µM (inactive)	> 100 µM (inactive)	> 100 µM (inactive)		> 10 µM (inactive)	> 100 µM (inactive)	> 100 µM (inactive)	> 100 µM (inactive)
NC1C2C(CC(=O)O)OCC=C3CN4CCC1(C(=O)C(=O)O)C4CC32 (configuration not stated)	> 100 µM (inactive)	> 100 µM (inactive)	> 100 µM	> 100 µM (inactive)	> 100 µM (inactive)	> 100 µM (inactive)	> 100 µM (inactive)	> 100 µM (inactive)	> 100 µM (inactive)		> 100 µM (inactive)	> 100 µM (inactive)	> 100 µM (inactive)	> 100 µM (inactive)	> 100 µM (inactive)	> 100 µM (inactive)	> 100 µM (inactive)	> 100 µM (inactive)	> 100 µM (inactive)
Cc1cc2cc3c(Cl)c(CCCl)c(C)nc3cc2c(Cl)c1CCCl	24.5 µM (inactive)	20.9 µM (inactive)	24.9 µM	13.8 µM (inactive)	17.4 µM (inactive)	17.9 µM (inactive)		13.5 µM (inactive)	24.1 µM (inactive)	14 µM (inactive)		17 µM (inactive)	24.8 µM (inactive)	23.6 µM (inactive)	15.6 µM (inactive)	19.2 µM (inactive)	12.6 µM (inactive)	18 µM (inactive)	
OC(c1ccc(C(F)(F)F)cc1)C(F)(F)c1nc2ccccc2o1 (configuration not stated)	> 100 µM (inactive)	> 100 µM (inactive)	> 100 µM	> 100 µM (inactive)	56.8 µM (inactive)	> 100 µM (inactive)	> 100 µM (inactive)		> 100 µM (inactive)	> 100 µM (inactive)	> 100 µM (inactive)	> 100 µM (inactive)	> 100 µM (inactive)	> 100 µM (inactive)	> 100 µM (inactive)		> 100 µM (inactive)	> 100 µM (inactive)	> 100 µM (inactive)
C=C(C)CC1(O)C(=O)C(OCC)=C1OCC (configuration not stated)	> 100 µM (inactive)	> 100 µM (inactive)	> 100 µM	> 100 µM (inactive)		> 100 µM (inactive)	> 100 µM (inactive)	> 100 µM (inactive)	> 100 µM (inactive)		> 100 µM (inactive)	79.6 µM (inactive)	> 100 µM (inactive)	> 100 µM (inactive)	> 100 µM (inactive)	> 100 µM (inactive)	> 100 µM (inactive)	> 100 µM (inactive)	> 100 µM (inactive)
CCOc1c(/N=N/c2ccccc2Cl)c(-c2ccccc2)nn1C(=S)S	37.4 µM (inactive)	48.1 µM (inactive)	23.1 µM	> 100 µM (inactive)	19 µM (inactive)	33 µM (inactive)	15.7 µM (inactive)	25 µM (inactive)	54 µM (inactive)		> 100 µM (inactive)	> 100 µM (inactive)	46.6 µM (inactive)	77.6 µM (inactive)	31.2 µM (inactive)	25.2 µM (inactive)	21.2 µM (inactive)	50.6 µM (inactive)	34.8 µM (inactive)
Oc1ccc(Cl)cc1C1=NC(NCNC2=NC(c3ccccc3)CC(c3cc(Cl)ccc3O)=N2)=NC(c2ccccc2)C1 (configuration not stated)	> 100 µM (inactive)	43.6 µM (inactive)	43.4 µM	> 100 µM (inactive)	39 µM (inactive)	> 100 µM (inactive)	> 100 µM (inactive)	60.1 µM (inactive)	> 100 µM (inactive)	63.4 µM (inactive)	> 100 µM (inactive)	> 100 µM (inactive)	> 100 µM (inactive)	> 100 µM (inactive)	> 100 µM (inactive)		> 100 µM (inactive)	> 100 µM (inactive)	> 100 µM (inactive)
O=C(O)c1cc(CCc2ccc(O)c(O)c2)ccc1O	> 100 µM (inactive)	> 100 µM (inactive)	> 100 µM	> 100 µM (inactive)	21.3 µM (inactive)	> 100 µM (inactive)		> 100 µM (inactive)	> 100 µM (inactive)		> 100 µM (inactive)	> 100 µM (inactive)	> 100 µM (inactive)		> 100 µM (inactive)	> 100 µM (inactive)	> 100 µM (inactive)	> 100 µM (inactive)	> 100 µM (inactive)
Cc1ccc2nc(NC(=O)/C(=N\NC(=S)NN)C3C(=O)NC(=S)NC3=O)sc2c1	> 100 µM (inactive)	> 100 µM (inactive)	> 100 µM	> 100 µM (inactive)	> 100 µM (inactive)	> 100 µM (inactive)			> 100 µM (inactive)	> 100 µM (inactive)	> 100 µM (inactive)	> 100 µM (inactive)	> 100 µM (inactive)	> 100 µM (inactive)	> 100 µM (inactive)	> 100 µM (inactive)	> 100 µM (inactive)	> 100 µM (inactive)	> 100 µM (inactive)
O=C(c1ccco1)C1CC(c2ccc3ccccc3c2O)=NN1c1ccc([N+](=O)[O-])cc1[N+](=O)[O-] (configuration not stated)	31 µM (inactive)	20.5 µM (inactive)	17.9 µM	33.3 µM (inactive)		3.95 µM (inactive)	20.7 µM (inactive)	28.1 µM (inactive)	23.8 µM (inactive)		28.1 µM (inactive)	12.5 µM (inactive)	34.5 µM (inactive)	30 µM (inactive)	17.6 µM (inactive)	7.98 µM (inactive)		28.6 µM (inactive)	24.5 µM (inactive)
CC(=O)CC1=C(OC(C)C)C2(OCCO2)C1O (configuration not stated)	> 100 µM (inactive)	> 100 µM (inactive)	> 100 µM	> 100 µM (inactive)		> 100 µM (inactive)	> 100 µM (inactive)	> 100 µM (inactive)	> 100 µM (inactive)		> 100 µM (inactive)	> 100 µM (inactive)	> 100 µM (inactive)	> 100 µM (inactive)	> 100 µM (inactive)	> 100 µM (inactive)	> 100 µM (inactive)	> 100 µM (inactive)	> 100 µM (inactive)
COc1ccc(-c2c(C(=O)Nc3ccccc3)c(-c3ccccc3)n(C3OC(CO)C(O)C(O)C3O)c(=S)c2C#N)cc1 (configuration not stated)	> 100 µM (inactive)	> 100 µM (inactive)	> 100 µM	> 100 µM (inactive)	> 100 µM (inactive)	> 100 µM (inactive)		> 100 µM (inactive)	> 100 µM (inactive)	> 100 µM (inactive)			> 100 µM (inactive)		> 100 µM (inactive)	> 100 µM (inactive)	> 100 µM (inactive)	> 100 µM (inactive)	
Nc1ccnc2c1ncn2[C@H]1C[C@H](O)[C@@H](CO)O1	> 100 µM (inactive)	> 100 µM (inactive)	> 100 µM	> 100 µM (inactive)		> 100 µM (inactive)	> 100 µM (inactive)	> 100 µM (inactive)	> 100 µM (inactive)			> 100 µM (inactive)	> 100 µM (inactive)	> 100 µM (inactive)	> 100 µM (inactive)	> 100 µM (inactive)	> 100 µM (inactive)	> 100 µM (inactive)	> 100 µM (inactive)
CCCSc1cc(Cl)c(C)cc1S(=O)(=O)n1ccnc1O	> 100 µM (inactive)	> 100 µM (inactive)	> 100 µM	> 100 µM (inactive)	> 100 µM (inactive)	> 100 µM (inactive)	> 100 µM (inactive)	> 100 µM (inactive)	> 100 µM (inactive)		> 100 µM (inactive)	20.1 µM (inactive)	> 100 µM (inactive)	> 100 µM (inactive)	> 100 µM (inactive)	> 100 µM (inactive)	> 100 µM (inactive)	> 100 µM (inactive)	> 100 µM (inactive)
